The values below are quoted from earlier work in patent publication US7858656B2, “Controlled release formulations containing an active ingredient, preferably melatonin and the method of preparation” (Ambros Pharma S.R.L., priority 2000, dated 2010).

The conditions of the data set: in various species, including man.

Take `COc1ccc2[nH]cc(CCNC(C)=O)c2c1` [melatonin, N-acetyl-5-methoxytryptamine]: the half-life of melatonin was 20 to 40 min.
